{
  "source": "patent US10654875B2",
  "about": "“Cell-penetrating, guanidinium-rich oligophosphotriesters for drug and probe delivery” (The Board of Trustees of the Leland Stanford Junior …, priority 2015, dated 2020)",
  "key": {"HeLa cells [1]": {"system": "HeLa cells", "details": "without attachment to a transporter, previously shown; cited from earlier work"}, "HeLa cells [2]": {"system": "HeLa cells", "experiment": "Uptake of maleimide conjugates by flow cytometry", "details": "10 μM, 10 minutes", "description": "(FIG. 4A) Delivery of FL-maleimide to HeLa cells by click-coupling to thiol-initiated HexPhos oligomer 8. Maleimide control and HexPhos8 conjugate (11 and 12 respectively) were formed by reaction of 10 with the corresponding thiol for 2 hours at room temperature in PBS. The resulting compounds were exposed to HeLa cells at 10 μM final concentration for 10 minutes before determining uptake by flow cytometry. Data shown is the average fluorescence of 10,000 events measured.\nTo explore this strategy, deprotected thiol-initiated HexPhos 8-mer (7) was mixed with fluorescein (FL) maleimide (10) in PBS at room temperature for 2 hours to effect a Michael addition and uptake of the resulting conjugate was determined by flow cytometry (FIG. 4, panel A).\nHeLa cells were plated at 40,000 cells/well in 24-well plates and incubated at 37° C. for 12-24 hours to adhere. Before treatment, a 1:1 molar ratio of thiol-initiated HexPhos oligomer (7) and FL-maleimide (10, Molecular Probes) was incubated for 2 hours in PBS (pH 7.4) at a final concentration of 4 mM. […] After removal of the supernatant, cells were resuspended in 125 μL of PBS and transferred to FACS tubes and read on a flow cytometry analyzer for the presence of fluorescein. Results were analyzed by FlowJo software. Data presented is the mean fluorescence from 10,000 cells analyzed."}, "[3]": {"system": "OVCA-429 (wild-type) ovarian cancer cells", "experiment": "MTT toxicity assay of PTX and PTX-HexPhos conjugate", "type": "cell-based, human", "details": "wash, 72 hours drug-free media, concentrations based on paclitaxel content", "description": "OVCA-429 (wild-type) and OVCA-429T (resistant) cells were treated with free PTX (14) or the HexPhos conjugate 16 for 20 minutes in PBS, then washed and incubated for 3 days. After this time, cellular viability was assessed using a standard MTT assay to generate an EC50 value (the concentration at which overall cellular viability was half that of untreated cells) for each condition. […] The efficacy of these compounds can be expressed in terms of a “resistance factor” for free PTX and the HexPhos-paclitaxel conjugate 16, defined as the EC50 in resistant cells/the EC50 in wild-type cells.\nMTT Toxicity Assays. The cytotoxicity of HexPhos oligomers, PTX alone, and PTX-HexPhos conjugate (16) were assessed by a standard MTT percent viability assay. Adherent cells (HeLa for oligomers alone, OVCA-429 or OVCA-429T for PTX and PTX-HexPhos conjugate) were plated at 5,000 cells/well in 96 well plates and allowed to incubate at 37° C. for 12-24 hours to adhere. Cells were washed with serum-free DMEM prior to treatment. In a second 96-well plate, compounds were serially diluted over a range of 200 μM to 400 nM, with two-fold dilutions between each well. […] Read absorbance on a plate reader at 570 and 690 nm. Subtracted absorbance at 570 from absorbance at 690 and normalized to wells with no cells as a minimum, and untreated cells as a maximum to calculate % viability."}, "[4]": {"system": "OVCA-429T (resistant) ovarian cancer cells", "experiment": "MTT toxicity assay of PTX and PTX-HexPhos conjugate", "type": "cell-based, human", "details": "for Resistance Factor: ratio of EC50 in OVCA-429T and OVCA-429 cells", "description": "The in vitro efficacy of PTX-HexPhos conjugate 16 was compared to free PTX in both wild-type and PTX-resistant ovarian cancer cells engineered to have high levels of Pgp up-regulation. OVCA-429 (wild-type) and OVCA-429T (resistant) cells were treated with free PTX (14) or the HexPhos conjugate 16 for 20 minutes in PBS, then washed and incubated for 3 days. After this time, cellular viability was assessed using a standard MTT assay to generate an EC50 value (the concentration at which overall cellular viability was half that of untreated cells) for each condition. […] The efficacy of these compounds can be expressed in terms of a “resistance factor” for free PTX and the HexPhos-paclitaxel conjugate 16, defined as the EC50 in resistant cells/the EC50 in wild-type cells.\nMTT Toxicity Assays. The cytotoxicity of HexPhos oligomers, PTX alone, and PTX-HexPhos conjugate (16) were assessed by a standard MTT percent viability assay. Adherent cells (HeLa for oligomers alone, OVCA-429 or OVCA-429T for PTX and PTX-HexPhos conjugate) were plated at 5,000 cells/well in 96 well plates and allowed to incubate at 37° C. for 12-24 hours to adhere. Cells were washed with serum-free DMEM prior to treatment. In a second 96-well plate, compounds were serially diluted over a range of 200 μM to 400 nM, with two-fold dilutions between each well. For PTX conditions, a range of 20 μM to 40 nM was used. Each compound was tested in triplicate. […] Second plate was transferred to the plate containing cells, and incubated at 37° C. for 10 minutes, followed washing and replacement with 150 μL fresh serum-containing DMEM. Cells were incubated for an additional 72 hours at 37° C., after which time cellular viability was assayed by adding μ10 L of 3-(4,5-dimethylthiazol-2-yl)-2,5-diphenyltetrazolium bromide (MTT) solution (15 mg in 3 mL DMEM). Incubated for 2 hours at 37° C. […] Read absorbance on a plate reader at 570 and 690 nm. Subtracted absorbance at 570 from absorbance at 690 and normalized to wells with no cells as a minimum, and untreated cells as a maximum to calculate % viability."}},
  "data": [
    {"molecule": "CN(C)c1cccc2c(S(=O)(=O)NCCO)cccc12", "note": "[Compound 4, 5-(dimethylamino)-N-(2-hydroxyethyl)naphthalene-1-sulfonamide]", "values": [
      {"measurement": "cell entry of probe alone", "setting": "HeLa cells [1]", "result": "not to enter cells"}
    ]},
    {"molecule": "O=C1OC2(c3ccc(O)cc3Oc3cc(O)ccc32)c2ccc(N3C(=O)C=CC3=O)cc21", "note": "[Compound 10, fluorescein (FL) maleimide]", "values": [
      {"measurement": "FL fluorescence of cells treated with controls", "setting": "HeLa cells [2]", "result": "little FL fluorescence"}
    ]},
    {"molecule": "CC(=O)O[C@H]1C(=O)[C@@]2(C)[C@H]([C@H](OC(=O)c3ccccc3)[C@]3(O)C[C@H](OC(=O)[C@H](O)[C@@H](NC(=O)c4ccccc4)c4ccccc4)C(C)=C1C3(C)C)[C@]1(OC(C)=O)CO[C@@H]1C[C@@H]2O", "note": "[PTX Alone (14), paclitaxel]", "values": [
      {"measurement": "EC50", "setting": "[3]; Homo sapiens, OVCA429, treated 20 minutes", "result": "0.051 ± 0.037", "unit": "µM"},
      {"measurement": "EC50 (μM) OVCA-429 (Wild-type)", "setting": "[3]; treated 20 minutes", "result": "highly cytotoxic"},
      {"measurement": "EC50", "setting": "[4]; Homo sapiens, treated 20 minutes, wash, 72 hours drug-free media, MTT, assay limit 20 μM", "result": "> 20", "unit": "µM"},
      {"measurement": "Resistance Factor", "setting": "[4]", "result": ">400"},
      {"measurement": "Resistance Factor", "setting": "[4]; listed as 14", "result": "≥ 400"}
    ]}
  ]
}
